Measurements as given in patent US20090143375A1, “Tricyclic Lactam Derivatives, Their Manufacture and Use as Pharmaceutical Agents” (F. HOFFMANN-LA ROCHE AG, priority 2005, published 2009).
One block for each compound: values may come before it.

How the values were obtained:
HCT 116 cells = test: CellTiter-Glo assay in HCT 116 cells (antiproliferative activity); type: cell-based; details: 120 h, HCT 116 cells (human colon carcinoma), 5 days incubation
Procedure: The CellTiter-Glo™ Luminescent Cell Viability Assay (Promega) is a homogeneous method of determining the number of viable cells in culture based on quantitation of the ATP present, which signals the presence of metabolically active cells.
HCT 116 cells (human colon carcinoma, ATCC-No. CCl-247) were cultivated in RPMI 1640 medium with GlutaMAX™ I (Invitrogen, Cat-No. 61870-010), 2.5% Fetal Calf Serum (FCS, Sigma Cat-No. F4135 (FBS)); 100 Units/ml penicillin/100 μg/ml streptomycin (=Pen/Strep from Invitrogen Cat. No. 15140). For the assay the cells were seeded in 384 well plates, 1000 cells per well, in the same medium. The next day the test compounds were added in various concentrations ranging from 30 μM to 0.0015 μM (10 concentrations, 1:3 diluted). After 5 days the CellTiter-Glo™ assay was done according to the instructions of the manufacturer (CellTiter-Glo™ Luminescent Cell Viability Assay, from Promega). In brief: the cell-plate was equilibrated to room temperature for approximately 30 minutes and than the CellTiter-Glo™ reagent was added. The contents were carefully mixed for 15 minutes to induce cell lysis. After 45 minutes the luminescent signal was measured in Victor 2, (scanning multiwell spectrophotometer, Wallac).
1st. day: • Medium: RPMI 1640 with GlutaMAX™ I (Invitrogen, Cat-Nr. 61870), 5% FCS (Sigma Cat.-No. F4135), Pen/Strep (Invitrogen, Cat No. 15140). • HCT116 (ATCC-No. CCl-247): 1000 cells in 60 μl per well of 384 well plate (Greiner 781098, μClear-plate white) • After seeding incubate plates 24 h at 37° C., 5% CO2 2nd. Day: Induction (Treatment with Compounds, 10 Concentrations):
In order to achieve a final concentration of 30 μM as highest concentration 3.5 μl of 10 mM compound stock solution were added directly to 163 μl media. Then step e) of the dilution procedure described below, was followed.
In order to achieve the second highest to the lowest concentrations, a serial dilution with dilution steps of 1:3 was followed according to the procedure (a-e) as described here below: • a) for the second highest concentration add 10 μl of 10 mM stock solution of compound to 20 μl dimethylsulfoxide (DMSO) • b) dilute 8×1:3 (always 10 μl to 20 μl DMSO) in this DMSO dilution row (results in 9 wells with concentrations from 3333.3 μM to 0.51 μM) • c) dilute each concentration 1:47.6 (3.5 μl compound dilution to 163 μl media) • e) add 10 μl of every concentration to 60 μl media in the cell plate resulting in final concentration of DMSO: 0.3% in every well and resulting in 10 final concentration of compounds ranging from 30 μM to 0.0015 μM. • Each compound is tested in triplicate. • Incubate 120 h (5 days) at 37° C., 5% CO2
• Add 30 μl CellTiter-Glo™ Reagent (prepared from CellTiter-Glo™ Buffer and CellTiter-Glo™ Substrate (lyophilized) purchased from Promega) per well, • shake 15 minutes at room temperature • incubate further 45 minutes at room temperature without shaking
• Victor 2 scanning multiwell spectrophotometer (Wallac), Luminescence mode (0.5 sec/read, 477 nm) • Determine IC50 using a non-linear curve fit (XLfit software (ID Business Solution Ltd., Guilford, Surrey, UK))

Aurora A kinase = biological target: T1, Aurora A kinase (Homo sapiens, UniProt O14965); test: IC50 determination for inhibitors of Aurora A kinase (ELISA, GST-Histone H3 substrate); type: biochemical; details: mutant Aur A kinase, 30 μM ATP, 40 minutes; read-out: IC50 Aurora A kinase inhibition
T1 sequence (O14965 1-403): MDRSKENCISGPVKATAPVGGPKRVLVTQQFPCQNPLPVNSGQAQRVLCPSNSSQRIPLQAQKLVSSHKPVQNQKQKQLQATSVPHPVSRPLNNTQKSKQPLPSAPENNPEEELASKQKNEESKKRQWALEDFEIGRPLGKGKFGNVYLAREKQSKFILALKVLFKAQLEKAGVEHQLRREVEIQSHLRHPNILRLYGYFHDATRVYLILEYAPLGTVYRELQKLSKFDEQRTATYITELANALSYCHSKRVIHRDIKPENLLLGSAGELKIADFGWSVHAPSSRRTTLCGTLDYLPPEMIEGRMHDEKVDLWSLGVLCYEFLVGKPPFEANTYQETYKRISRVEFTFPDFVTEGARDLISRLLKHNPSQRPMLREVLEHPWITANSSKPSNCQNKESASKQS
Procedure: IC50 Determination for Inhibitors of Aurora A Kinase Assay Principle
Aurora A is a serine threonine kinase involved in spindle assembly and chromosome segregation.
The assay is a typically ELISA-type assay where substrate (GST-Histone H3) is coupled to the assay-plate and is phosphorylated by the kinase. Phosphorylation is detected by a mouse anti-Phosphopeptid mAb and an HRP-labeled anti-mouse pAb. The assay is validated for IC50-determination.
Kinase activities were measured by Enzyme-Linked Immunosorbent Assay (ELISA): Maxisorp 384-well plates (Nunc) were coated with recombinant fusion protein comprising residues 1-15 of HistoneH3 fused to the N-terminus of Glutathione-S-Transferase. Plates were then blocked with a solution of 1 mg/mL I-block (Tropix cat# T2015—highly purified form of casein) in phosphate-buffered saline. […] After washing, substrate phosphorylation was detected by addition of anti-phospho-Histone H3 (Ser 10) 6G3 mAb (Cell Signaling cat #9706) and sheep anti-mouse pAb-HRP (Amersham cat# NA931V), followed by colorimetric development with TMB (3,3′,5,5′-tetramethylbenzidine from Kirkegaard & Perry Laboratories). After readout of the absorbance, IC50 values were calculated using a non-linear curve fit (XLfit software (ID Business Solution Ltd., Guilford, Surrey, UK))

SMILES: Cc1cc(-c2nc3cc4c(cc3[nH]2)C(C)(C)C(=O)N4CC#N)n[nH]1 [Example 2, [7,7-Dimethyl-2-(5-methyl-1H-pyrazol-3-yl)-6-oxo-6,7-dihydro-1H-imidazo[4,5-f]indol-5-yl]-acetonitrile]
- IC50 (HCT 116 cells): 0.1 to 5 µM

SMILES: Cc1cc(-c2nc3cc4c(cc3[nH]2)C(C)(C)C(=O)N4CCCN2CCOCC2)[nH]n1 [Example 5, 7,7-Dimethyl-2-(5-methyl-2H-pyrazol-3-yl)-5-(3-morpholin-4-yl-propyl)-5,7-dihydro-1H-imidazo[4,5-f]indol-6-one]
- IC50 (HCT 116 cells): 0.1 to 5 µM

SMILES: COCCN1C(=O)C(C)(C)c2cc3nc(-c4cc(C)[nH]n4)[nH]c3cc21 [Example 1, 5-(2-Methoxy-ethyl)-7,7-dimethyl-2-(5-methyl-1H-pyrazol-3-yl)-5,7-dihydro-3H-imidazo[4,5-f]indol-6-one]
- IC50 (Aurora A kinase): 0.08 µM
- IC50 (HCT 116 cells): 0.1 to 5 µM

SMILES: Cc1cc(-c2nc3cc4c(cc3[nH]2)N(CC(=O)Nc2ccc(F)cc2)C(=O)C4(C)C)n[nH]1 [Example 10, 2-[7,7-Dimethyl-2-(5-methyl-1H-pyrazol-3-yl)-6-oxo-6,7-dihydro-3H-imidazo[4,5-f]indol-5-yl]-N-(4-fluoro-phenyl)-acetamide]
- IC50 (Aurora A kinase): 0.04 µM
- IC50 (HCT 116 cells): 0.1 to 5 µM

SMILES: CCCc1cc(-c2nc3cc4c(cc3[nH]2)C(C)(C)C(=O)N4CCCN2CCOCC2)[nH]n1 [Example 6, 7,7-Dimethyl-5-(3-morpholin-4-yl-propyl)-2-(5-propyl-2H-pyrazol-3-yl)-5,7-dihydro-1H-imidazo[4,5-f]indol-6-one]
- IC50 (HCT 116 cells): 1.24 µM

SMILES: Cc1cc(-c2nc3cc4c(cc3[nH]2)N(CC(=O)N2CCOCC2)C(=O)C4(C)C)n[nH]1 [Example 9, 7,7-Dimethyl-2-(5-methyl-1H-pyrazol-3-yl)-5-(2-morpholin-4-yl-2-oxo-ethyl)-5,7-dihydro-3H-imidazo[4,5-f]indol-6-one]
- IC50 (HCT 116 cells): 5.83 µM

SMILES: C=CCN1C(=O)C(C)(C)c2cc3nc(-c4cc(C)[nH]n4)[nH]c3cc21 [Example 3, 5-Allyl-7,7-dimethyl-2-(5-methyl-1H-pyrazol-3-yl)-5,7-dihydro-3H-imidazo[4,5-f]indol-6-one]
- IC50 (HCT 116 cells): 0.1 to 5 µM

SMILES: CC1(C)C(=O)N(CCCN2CCOCC2)c2cc3nc(-c4cc(C(F)(F)F)n[nH]4)[nH]c3cc21 [Example 4, 7,7-Dimethyl-5-(3-morpholin-4-yl-propyl)-2-(5-trifluoromethyl-2H-pyrazol-3-yl)-5,7-dihydro-1H-imidazo[4,5-f]indol-6-one]
- IC50 (HCT 116 cells): 0.1 to 5 µM

The next lines start with the values.

- IC50 (HCT 116 cells): 0.1 to 5 µM
SMILES: Cc1cc(-c2nc3cc4c(cc3[nH]2)N(CC(=O)NCc2ccc(F)cc2)C(=O)C4(C)C)n[nH]1 [Example 12, 2-[7,7-Dimethyl-2-(5-methyl-1H-pyrazol-3-yl)-6-oxo-6,7-dihydro-3H-imidazo[4,5-f]indol-5-yl]-N-(4-fluoro-benzyl)-acetamide]

- IC50 (HCT 116 cells): 5 to 15 µM
SMILES: Cc1cc(-c2nc3cc4c(cc3[nH]2)C(C)(C)C(=O)N4CCN)n[nH]1 [Example 14, 5-(2-Amino-ethyl)-7,7-dimethyl-2-(5-methyl-1H-pyrazol-3-yl)-5,7-dihydro-1H-imidazo[4,5-f]indol-6-one]

- IC50 (HCT 116 cells): 0.1 to 5 µM
SMILES: COc1cc(CNC(=O)CN2C(=O)C(C)(C)c3cc4nc(-c5cc(C)[nH]n5)[nH]c4cc32)cc(OC)c1 [Example 11, N-(3,5-Dimethoxy-benzyl)-2-[7,7-dimethyl-2-(5-methyl-1H-pyrazol-3-yl)-6-oxo-6,7-dihydro-3H-imidazo[4,5-f]indol-5-yl]-acetamide]

- IC50 (HCT 116 cells): 0.1 to 5 µM
SMILES: CCN(CC)CCN1C(=O)C(C)(C)c2cc3nc(-c4cc(C)[nH]n4)[nH]c3cc21 [Example 13, 5-(2-Diethylamino-ethyl)-7,7-dimethyl-2-(5-methyl-1H-pyrazol-3-yl)-5,7-dihydro-3H-imidazo[4,5-f]indol-6-one]
